Data reported in publication PMC8391236, “Effect of Pterostilbene, a Natural Derivative of Resveratrol, in the Treatment of Colorectal Cancer through Top1/Tdp1-Mediated DNA Repair Pathway” (Cancers, 2021).

How the values were obtained:
[1] = tested on: Tdp1-over CL187 cells; assay: Apoptosis by flow cytometry; assay type: cell-based, Human; details: 48 h
Description: (§1) Exponentially growing CL187 cells were seeded in 6-well plates (1.2 × 10^6 cells/well) until a well was filled with cells. The RE or PTE at various concentrations were added separately into plate wells and incubated with cells for 48 h. The incubated cells were collected and treated by Annexin V-FITC/PI Apoptosis Detection Kit. The stained cells were analyzed with a flow cytometer (Becton-Dickinson, Franklin Lakes, NJ, USA), and data analyses were performed with BD Cell Quest^TM pro 6.0..

[2] = tested on: siRNA-Top1 CL187 cells; assay: Apoptosis by flow cytometry; assay type: cell-based, Human; details: 48 h
Description: as §1

[3] = tested on: siRNA-Tdp1 CL187 cells; assay: Apoptosis by flow cytometry; assay type: cell-based, Human; details: 48 h
Description: as §1

[4] = tested on: orthotopic CL187 xenograft; assay: Orthotopic CL187 xenograft model; assay type: in vivo, BABLc/nude mice; details: for Tumor Weight: 21 days; for Ki67 labeling rate in tumor tissue: vector control 46.53±3.86%
Description: (§2) The mice were anaesthetized with 10% chloral hydrate and fixed on the operating table. After the abdomen of the mice was disinfected with iodine, a small section of the large intestine was squeezed out of the surgical opening. The 0.1 mL (per mouse) CL187 cell suspension (1 × 10^7 /mL) was inoculated into the colon wall of nude mice. After the inoculation, the large intestine was placed into the mouse abdominal cavity. After the wound was sutured, the mice were put into cages until they naturally woke up. After 10 days of inoculation, the animals were randomly divided into 4 groups (6 mice per group). Vector control group was intraperitoneally injected with 5% DMSO and 95% saline containing 30% HP-β-CD (i.p.). The drug dosage was designed according to the results of the previous pharmacokinetic experiment. Experimental Group 1 was intraperitoneal injected (i.p.) with PTE 100 mg/kg, and experiment Group 2 was intragastric administrated (i.g.) with PTE 500 mg/kg, once a day. The bioavailability of PTE was the same in the animals in the above regimens. Positive control group was injected with irinotecan, 20 mg/kg, twice a week. During the experiment, the changes of body weight of nude mice were recorded. After 21 days, the nude mice were sacrificed, the tumor blocks were removed surgically, weighed, and recorded.
Tumor and organ tissues were paraffin-embedded and sectioned into […] after being fixed in 4% of paraformaldehyde solution for 24 h. The sections were deparaffinized and rehydrated before detection. For histological observation, tumor sections were stained with hematoxylin and eosin (HE), and then observed by an inverted microscopy (Olympus, Japan).
For immunohistochemistry analysis, the sections were treated with 3% hydrogen peroxide for 10 min to block endogenous peroxidase, and then incubated with Ki67 primary antibody for overnight at 4 °C. Subsequently, the sections were treated with secondary antibody at room temperature for 20 min. After being washed with PBS, the sections were incubated with DAB chromogenic solution for 10 min, followed by rewashing in PBS. The sections were counterstained with hematoxylin after DAB coloration. The antibody specificity was confirmed by negative control without primary antibody treatment. Immunopositive areas were observed by an inverted microscope (Olympus, Japan).

[5] = tested on: SW480; assay: Cell viability assay (CCK-8); assay type: cell-based; details: Homo sapiens
Description: (§3) PTE or RE were dissolved in DMSO and diluted with culture medium to 1–100 μM. The final concentration of DMSO was less than 0.1%, and 0.1% DMSO as negative control. CPT, as Top1 inhibitor, was diluted to 0.5 μM [36, 37], and FM, as Tdp1 inhibitor was diluted to 25 μM [38]. Exponentially growing cells were seeded in 96-well plates (5 × 10^3 cells/well) for 12 h. Various drugs were added separately and incubated for 24, 48, and 72 h. Cell viability was determined by CCK-8 (Beyotime Biotechnology, Shanghai, China) assay. […]
(§4) The drug concentration required for inhibiting cell proliferation by 50% (IC50) was determined by interpolation from dose-response curves.

[6] = tested on: HCoEpiC-; assay: Proliferation of non-tumor cells (CCK-8); assay type: cell-based
Description: as §3, with “The” for “PTE or RE were dissolved in DMSO and diluted with culture medium to 1–100 μM. The”
as §4

[7] = tested on: HFL-1; assay: Proliferation of non-tumor cells (CCK-8); assay type: cell-based; details: Homo sapiens, HFL1
Description: as §3, with “The” for “PTE or RE were dissolved in DMSO and diluted with culture medium to 1–100 μM. The”
as §4

[8] = tested on: L02; assay: Proliferation of non-tumor cells (CCK-8); assay type: cell-based; details: Homo sapiens
Description: as §3, with “The” for “PTE or RE were dissolved in DMSO and diluted with culture medium to 1–100 μM. The”
as §4

[9] = tested on: liver, kidney, lung, and paracancerous colon tissues; assay: HE staining of organs of orthotopic xenograft mice; assay type: in vivo; details: orthotopic xenograft nude mice
Description: as §2, with “and recorded. Tumor and organ tissues were paraffin-embedded and sectioned into […] after being fixed in 4% of paraformaldehyde solution for 24 h. The sections were deparaffinized and rehydrated before detection. For histological observation, tumor sections were stained with hematoxylin and eosin (HE), and then observed by an inverted microscopy (Olympus, Japan).” for “and recorded.”

IC50 ([5]; SW480, 24 h): 113 ± 24 µM
IC50 ([5]; SW480, 48 h): 35.7 ± 9.32 µM
IC50 ([5]; SW480, 72 h): 40.5 ± 10.8 µM
SMILES: COc1cc(/C=C/c2ccc(O)cc2)cc(OC)c1 [PTE, 3,5-dimethoxy-4′-hydroxy-trans-stilbene]
cell apoptotic proportion ([1]; Tdp1-over CL187, 10 μM): 26.80%
cell apoptotic proportion ([1]; Tdp1-over CL187, 20 μM): 31.81%
cell apoptotic proportion ([1]; Tdp1-over CL187, 50 μM): 32.87%
cell apoptotic proportion ([2]; siRNA-Top1 CL187, 10 μM): 25.29%
cell apoptotic proportion ([2]; siRNA-Top1 CL187, 20 μM): 29.42%
cell apoptotic proportion ([2]; siRNA-Top1 CL187, 50 μM): 33.93%
cell apoptotic proportion ([3]; siRNA-Tdp1 CL187, 10 μM): 18.16%
cell apoptotic proportion ([3]; siRNA-Tdp1 CL187, 20 μM): 20.92%
cell apoptotic proportion ([3]; siRNA-Tdp1 CL187, 50 μM): 24.38%
Tumor Weight ([4]; 100 mg/kg-i.p. once a day): 0.51 ± 0.12 g
Ki67 labeling rate in tumor tissue ([4]; 100 mg/kg-i.p.): 4.89 ± 1.82%
Tumor Weight ([4]; 500 mg/kg-i.g. once a day): 0.60 ± 0.06 g
Ki67 labeling rate in tumor tissue ([4]; 500 mg/kg-i.g.): 12.03 ± 3.40%
IC50 ([6]; 24 h): 444 µM
IC50 ([6]; 48 h): 250 µM
IC50 ([6]; 72 h): 83.4 µM
IC50 ([7]; HFL-1, 24 h): 339 µM
IC50 ([7]; HFL-1, 48 h): 315 µM
IC50 ([7]; HFL-1, 72 h): 130 µM
IC50 ([8]; L02, 24 h): 478 µM
IC50 ([8]; L02, 48 h): 248 µM
IC50 ([8]; L02, 72 h): 148 µM
effect on lung inflammation (HE sections) [9]: no significant effect on lung inflammation
damage to the liver (HE sections) ([9]; treatment group vs solvent control): caused no additional damage
